Experimental data as given in patent US10238713B2, “Cyclic tetrapeptides and therapeutic applications thereof” (LODZ UNIVERSITY OF TECHNOLOGY, priority 2010, dated 2019).
Non-standard residues stand in square brackets, D forms with d. Residues, ends and D or L forms follow the SMILES beside them. β3hF = N[C@H](CC(=O)O)Cc1ccccc1

Assays:
[1] = tested on: human peripheral mononuclear blood cells (PBMC); assay: Cytotoxic test on human blood mononuclear cells (24 h, colorimetric); conditions: at 40 μg/ml, FIG. 5
Description: For evaluation of toxicity of the compound of formula I-A, human peripheral mononuclear blood cells (PBMC) were chosen. This fraction consists of approximately 80% lymphocytes and 20% monocytes. As a reference compound, cyclolinopeptide (CLA) was selected since the compound of formula I-A shares a part of the sequence of CLA.
After centrifugation at 1200×g for 20 min, the mononuclear cells from the interphase were harvested and washed 3 times with PBS. The cells were re-suspended in a standard culture medium consisting of RPMI-1640 medium, L-glutamine, sodium pyruvate, 2-mercaptoethanol, 100 μg/ml each of streptomycin and penicillin, and 10% fetal calf serum. The cells were distributed to in 96-well flat-bottom culture plates at density of 2×10^5/100 μl. The compounds (formula I-A and CLA) were initially dissolved in DMSO (5 mg/500 μl) and subsequently in the culture medium. DMSO, appropriately diluted with the culture medium, was used as a control. After 24 h incubation in a cell culture incubator, cell viability was determined by a colorimetric method (Hansen et al., J Immunol Methods, 1989, 119, 203-210).

[2] = tested on: mouse splenocyte cultures, humoral immune response to SRBC; assay: Secondary humoral immune response in vitro to SRBC (AFC number); assay type: cell-based
Description: Mice were sensitized intraperitoneally with 0.2 ml of 5% (v/v) SRBC suspension. After four days spleens from these mice were isolated and single cell suspensions prepared by homogenization in PBS solution. After washing the cells in PBS by centrifugation, the cells were re-suspended in the culture medium at a density of 5×10^6 cells/ml. The cells were subsequently distributed to 24-well culture plates in 1 ml aliquots and 0.05 ml of 0.005% SRBC was added as the antigen to each well. The compounds were added to the cultures at the beginning of the four-day incubation period at concentration ranges of 1-100 μg/ml. The number of antibody-forming cells (AFC) in the cultures was determined using a method of local hemolysis in agar gel according to Mishell et al., J Exp Med, 1967, 126, 423-442.

[3] = tested on: splenocytes; assay: Toxicity test on splenocytes (24 h, MTT); assay type: cell-based, mouse; conditions: 100 μg/ml (printed 100 μg/m for I-C)
Description: Cell survival was determined by MTT colorimetric method. The results were presented as mean optical density (OD) at 550 nm from 4 wells. The viability of cells in respective compound concentrations was compared to appropriate DMSO control groups (100% survival), corresponding to respective compound concentrations.

[4] = tested on: concanavalin A-induced mouse splenocyte proliferation; assay: Proliferative response of splenocytes to concanavalin A (MTT); assay type: cell-based; conditions: 50-100 μg/ml
Description: Spleens were pressed against a plastic screen into 0.83% NH4Cl solution to lyse erythrocytes (5 min incubation at room temperature). The cells were then washed twice with Hanks' medium, passed through glass wool column to remove debris, and re-suspended in the culture medium, referred to below as the “culture medium”, consisting of RPMI-1640, supplemented with 10% of fetal calf serum, L-glutamine, sodium pyruvate, 2-mercaptoethanol, streptomycin and penicillin (100 μg/ml). The cells were then distributed into 96-well flat-bottom tissue culture plates (Nunc) at a density of 2×10^5 cells/100 μl/well. Con A (2.5 μg/ml) was added to induce cell proliferation. The compounds were added to the cultures at doses of 1-100 μg/ml. After a three-day incubation, cell proliferation was determined using the colorimetric MTT method (Hansen M B, J Immunol Methods, 1989, 119, 203-210). The results were presented as the mean optical density (OD) at 550 nm ±SE from quadriplicate determinations (wells).

CC[C@H](C)[C@@H]1NC(=O)[C@H](CC(C)C)NC(=O)[C@H](Cc2ccccc2)NC(=O)[C@H](Cc2ccccc2)NC(=O)[C@@H]2CCCN2C(=O)[C@@H]2CCCN2C(=O)[C@H](C(C)C)NC(=O)[C@H](CC(C)C)NC(=O)[C@H]([C@@H](C)CC)NC1=O [CLA, Cyclolinopeptide A] (cyclo(FFLIILVPP))
cytotoxic effect on PBMC [1]: statistically significant cytotoxic effect

O=C1C[C@H](Cc2ccccc2)NC(=O)[C@@H]2CCCN2C(=O)[C@@H]2CCCN2C(=O)C[C@H](Cc2ccccc2)N1 [I-C] (cyclo(PP[β3hF][β3hF]))
suppression of in vitro humoral immune response to SRBC ([2]; 10 μg/m as printed): 33% | suppression of in vitro humoral immune response to SRBC ([2]; 100 μg/m as printed): 80% | toxicity to splenocytes [3]: 70% | effect on concanavalin A-induced mouse splenocyte proliferation [4]: strong inhibitory effect
